Here are results for 10 compounds from patent publication US6387885B1, “3′,3′-N-bis-desmethyl-3′-N-cycloalkyl erythromycin derivatives as LHRH antagonists” (Abbott Laboratories, priority 1998, dated 2002).

Structures are written as SMILES.

In the first data set the target is T1, LHRH rat pituitary receptor (Rattus norvegicus, UniProt P30969).
T1 construct: from tissue; host or cells: rat pituitary
T1 sequence (P30969 1-327): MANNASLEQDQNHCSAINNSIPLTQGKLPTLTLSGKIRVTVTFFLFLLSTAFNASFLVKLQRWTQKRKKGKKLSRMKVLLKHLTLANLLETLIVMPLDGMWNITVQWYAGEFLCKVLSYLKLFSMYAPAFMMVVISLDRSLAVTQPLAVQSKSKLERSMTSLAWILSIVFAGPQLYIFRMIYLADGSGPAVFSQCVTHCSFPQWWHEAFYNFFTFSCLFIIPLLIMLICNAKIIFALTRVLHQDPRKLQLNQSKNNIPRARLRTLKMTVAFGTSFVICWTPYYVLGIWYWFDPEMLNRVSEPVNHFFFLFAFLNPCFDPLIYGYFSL
The experiment in a line: LHRH rat pituitary receptor binding (in vitro). As to conditions: method of Haviv et al. J. Med. Chem. 32: 2340-2344 (1989), read-out: pKI (receptor binding affinity; negative logarithm of the equilibrium dissociation constant) (converted). As to the method:
Representative compounds of the present invention were evaluated in in vitro tests for LHRH rat pituitary receptor binding (pKI). The tests employed the methods detailed in F. Haviv, et al. J. Med. Chem., 32: 2340-2344 (1989). The receptor binding affinity (pKI) is the negative logarithms of the equilibrium dissociation constants.
Consider `CCC1CCC(CC)N1[C@H]1C[C@@H](C)O[C@@H](O[C@@H]2[C@@H](C)[C@H](O[C@H]3C[C@@](C)(OC)[C@@H](O)[C@H](C)O3)[C@@H](C)C(=O)O[C@H](CC)[C@@]3(C)OC(=O)N(CCc4ccc(F)c(Cl)c4)[C@@H]3[C@@H](C)C(=O)[C@H](C)C[C@@]2(C)OC)[C@@H]1O` (mixture of isomers) [Example 10, 3′-Desamino-3′-N-(2,5-diethylpyrrolidinyl)-11-deoxy-11-[carboxy-(3-chloro-4-fluorophenethylamino)]-6-O-methyl-erythromycin A 11,12-(cyclic carbamate)], for which the Ki is 0.676 nM. With `CC[C@H]1OC(=O)[C@H](C)[C@@H](O[C@H]2C[C@@](C)(OC)[C@@H](O)[C@H](C)O2)[C@H](C)[C@@H](O[C@@H]2O[C@H](C)C[C@H](N3C(C)CCC3C)[C@H]2O)[C@](C)(OC)C[C@@H](C)C(=O)[C@H](C)[C@H]2N(CCc3ccc(Cl)c(Cl)c3)C(=O)O[C@]12C` (single isomer, unassigned) [Example 5, 3′-Desamino-3′S-N-(2,5-dimethylpyrrolidinyl)-11-deoxy-11-[carboxy-(3,4-dichlorophenethylamino)]-6-O-methyl-erythromycin A 11,12-(cyclic carbamate)], the Ki is 1.23 nM.

Consider `CC[C@H]1OC(=O)[C@H](C)[C@@H](O[C@H]2C[C@@](C)(OC)[C@@H](O)[C@H](C)O2)[C@H](C)[C@@H](O[C@@H]2O[C@H](C)C[C@H](N3C(C)CCC3C)[C@H]2O)[C@](C)(OC)C[C@@H](C)C(=O)[C@H](C)[C@H]2N(CCc3ccc(F)c(Cl)c3)C(=O)O[C@]12C` (single isomer, unassigned) [Example 6, 3′-Desamino-3′-N-(2,5-dimethylpyrrolidinyl)-11-deoxy-11-[carboxy-(3-chloro-4-fluorophenethylamino)]-6-O-methyl-erythromycin A 11,12-(cyclic carbamate)], for which the Ki was 0.759 nM. On the same count and under the same terms, the value for `CC[C@H]1OC(=O)[C@H](C)[C@@H](O[C@H]2C[C@@](C)(OC)[C@@H](O)[C@H](C)O2)[C@H](C)[C@@H](O[C@@H]2O[C@H](C)C[C@H](N3C(C)CCCC3C)[C@H]2O)[C@](C)(OC)C[C@@H](C)C(=O)[C@H](C)[C@H]2N(CCc3ccc(Cl)c(Cl)c3)C(=O)O[C@]12C` (single isomer, unassigned) [Example 7, 3′-Desamino-3′-N-(2,6-dimethylpiperidinyl)-11-deoxy-11-[carboxy-(3,4-dichlorophenethylamino)]-6-O-methyl-erythromycin A 11,12-(cyclic carbamate)] was 2.57 nM. Still for that read-out and setting: the value for `CC[C@H]1OC(=O)[C@H](C)[C@@H](O[C@H]2C[C@@](C)(OC)[C@@H](O)[C@H](C)O2)[C@H](C)[C@@H](O[C@@H]2O[C@H](C)C[C@H](N3C(C)CCCC3C)[C@H]2O)[C@](C)(OC)C[C@@H](C)C(=O)[C@H](C)[C@H]2N(CCc3ccc(F)c(Cl)c3)C(=O)O[C@]12C` (single isomer, unassigned) [Example 8, 3′-Desamino-3′-N-(2,6-dimethylpiperidinyl)-11-deoxy-11-[carboxy-(3-chloro-4-fluorophenethylamino)]-6-O-methyl-erythromycin A 11,12-(cyclic carbamate)] was 2.45 nM; that for `CC[C@H]1OC(=O)[C@H](C)[C@@H](O[C@H]2C[C@@](C)(OC)[C@@H](O)[C@H](C)O2)[C@H](C)[C@@H](O[C@@H]2O[C@H](C)C[C@H](N3CCCC3)[C@H]2O)[C@](C)(OC)C[C@@H](C)C(=O)[C@H](C)[C@H]2N(CCc3ccc(Cl)c(Cl)c3)C(=O)O[C@]12C` [Example 1, 3′-Desamino-(3′S)-N-pyrrolidinyl-11-deoxy-11-[carboxy-(3,4-dichlorophenethylamino)]-6-O-methyl-erythromycin A 11,12-(cyclic carbamate)] was 1.82 nM. Still for that read-out and setting: to `CC[C@H]1OC(=O)[C@H](C)[C@@H](O[C@H]2C[C@@](C)(OC)[C@@H](O)[C@H](C)O2)[C@H](C)[C@@H](O[C@@H]2O[C@H](C)C[C@H](N3CCCCC3)[C@H]2O)[C@](C)(OC)C[C@@H](C)C(=O)[C@H](C)[C@H]2N(CCc3ccc(Cl)c(Cl)c3)C(=O)O[C@]12C` [Example 3, 3′-Desamino-3′-N-piperidinyl-11-deoxy-11-[carboxy-(3,4-dichlorophenethylamino)]-6-O-methyl-erythromycin A 11,12-(cyclic carbamate)] belongs 3.55 nM; to `CC[C@H]1OC(=O)[C@H](C)[C@@H](O[C@H]2C[C@@](C)(OC)[C@@H](O)[C@H](C)O2)[C@H](C)[C@@H](O[C@@H]2O[C@H](C)C[C@H](N3CCCCC3)[C@H]2O)[C@](C)(OC)C[C@@H](C)C(=O)[C@H](C)[C@H]2N(CCc3ccc(F)c(Cl)c3)C(=O)O[C@]12C` [Example 4, 3′-Desamino-3′-N-piperidinyl-11-deoxy-11-[carboxy-(3-chloro-4-fluorophenethylamino)]-6-O-methyl-erythromycin A 11,12-(cyclic carbamate)], 5.62 nM.

With `CCC1CCC(CC)N1[C@H]1C[C@@H](C)O[C@@H](O[C@@H]2[C@@H](C)[C@H](O[C@H]3C[C@@](C)(OC)[C@@H](O)[C@H](C)O3)[C@@H](C)C(=O)O[C@H](CC)[C@@]3(C)OC(=O)N(CCc4ccc(Cl)c(Cl)c4)[C@@H]3[C@@H](C)C(=O)[C@H](C)C[C@@]2(C)OC)[C@@H]1O` (stereo partly drawn) [Example 9, 3′-Desamino-3′-N-(2,5-diethylpyrrolidinyl)-11-deoxy-11-[carboxy-(3,4-dichlorophenethylamino)]-6-O-methyl-erythromycin A 11,12-(cyclic carbamate)], the Ki was 1.74 nM. Same read-out and setting: the value for `CC[C@H]1OC(=O)[C@H](C)[C@@H](O[C@H]2C[C@@](C)(OC)[C@@H](O)[C@H](C)O2)[C@H](C)[C@@H](O[C@@H]2O[C@H](C)C[C@H](N3C(C4CC4)CCCC3C3CC3)[C@H]2O)[C@](C)(OC)C[C@@H](C)C(=O)[C@H](C)[C@H]2N(CCc3ccc(F)c(Cl)c3)C(=O)O[C@]12C` (stereo partly drawn) [Example 11, 3′-Desamino-3′-N-(2,6-biscyclopropylpiperidinyl)-11-deoxy-11-[carboxy-(3-chloro-4-fluorophenethylamino)]-6-O-methyl-erythromycin A 11,12-(cyclic carbamate)] was 1.17 nM.

Tested on in the next data set: not given
Assay: not given
Conditions: not given
For `CC[C@H]1OC(=O)[C@H](C)[C@@H](O[C@H]2C[C@@](C)(OC)[C@@H](O)[C@H](C)O2)[C@H](C)[C@@H](O[C@@H]2O[C@H](C)C[C@H](N3C(C)CCC3C)[C@H]2O)[C@](C)(OC)C[C@@H](C)C(=O)[C@H](C)[C@H]2N(CCc3ccc(Cl)c(Cl)c3)C(=O)O[C@]12C` (single isomer, unassigned) [Example 5, 3′-Desamino-3′S-N-(2,5-dimethylpyrrolidinyl)-11-deoxy-11-[carboxy-(3,4-dichlorophenethylamino)]-6-O-methyl-erythromycin A 11,12-(cyclic carbamate)], the melting point is 258 to 260 °C.

The compound `CC[C@H]1OC(=O)[C@H](C)[C@@H](O[C@H]2C[C@@](C)(OC)[C@@H](O)[C@H](C)O2)[C@H](C)[C@@H](O[C@@H]2O[C@H](C)C[C@H](N3C(C)CCC3C)[C@H]2O)[C@](C)(OC)C[C@@H](C)C(=O)[C@H](C)[C@H]2N(CCc3ccc(F)c(Cl)c3)C(=O)O[C@]12C` (single isomer, unassigned) [Example 6, 3′-Desamino-3′-N-(2,5-dimethylpyrrolidinyl)-11-deoxy-11-[carboxy-(3-chloro-4-fluorophenethylamino)]-6-O-methyl-erythromycin A 11,12-(cyclic carbamate)] gave a melting point of 276 to 278 °C.

In general, melting point refers to the temperature of the solid-liquid transition.
